One data set has as its system HSV-1. Nature of the data set: Anti-HSV-1 replication assay in Vero cells, titers by plaque assay. The class given is cell-based, herpes simplex virus 1. To be noted: Human alphaherpesvirus 1, Vero, 24 h. In a few lines:
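Vero monolayers infected with clinical HSV-1 or HSV-2 isolates at MOI 0.1 with compound present (50 and 5 μM final), 1 h at 37° C, then compound in DMEM for another 23 h. Yield titered by plaque assay on Vero cells; EC50 by nonlinear fit of serial dilutions starting at 50 μM, DMSO controls.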

For a further data set, the system named is HSV-2. Nature of the data set: Combination of ACV and compound 118 against HSV-2 in Vero cells (plaque assay, qPCR, Chou-Talalay). The format is cell-based, herpes simplex virus 2. To be noted: constant ratios, MOI 0.1, 24 h, FIGS. 8A-8C. Here is the method: After 24 h, the cultures were collected and divided into two aliquots. […] The area below the lines indicates synergism, and the area above indicates antagonism.
A general note: In qPCR the cycle at which signal appears reflects the starting amount.

A further data set concerns HSV. In words: Anti-HSV SAR summary, HSV type not separated. To be noted: grouped by activity at 50, 5 and 0.5 μM. The format is cell-based, herpes simplex virus. In a few lines: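 Confluent monolayers were infected with HSV-1 or HSV-2 at MOI 0.1 in the presence of compound at 50 and 5 µM for 1 h at 37 °C. Compound was then re-added in DMEM/2% newborn calf serum for 23 h more. Yield was titred by plaque assay on Vero cells, with DMSO controls. EC50 values came from serial dilutions starting at 50 µM, fitted by non-linear regression.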

Data set [1] is described as follows: Cytotoxicity reported with the HBV assay (Table 4). The class given is cell-based. Conditions: human, hepatoma cells; read-out: CC50 (HBV assay table). In a few lines: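 Cells exposed 24 h to compounds at 0.78–100 μM in 1% DMSO, under the same conditions as the viral replication assays.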

“Also recorded” adds a separate entry of the source.

With `Cc1cc(O)c(=O)c(O)cc1C(=O)c1ccc(-c2ccccc2)cc1` [Compound 118], the EC50 (in general, the midpoint of the concentration-response curve) in the data set on HSV-1 (read-out: HSV-1 EC50) was 0.085 µM. In the data set with HSV-1 (read-out: HSV-1 Log suppression 5 μM), the log reduction at 5 µM was determined as 5.14. For the same compound, the log reduction at 50 µM with HSV-1 (read-out: HSV-1 Log suppression 50 μM) came to 6.27. Besides, the “interaction with ACV on HSV-2 replication and DNA accumulation” value in the data set on HSV-2 is listed as “synergistically inhibit”. The “anti-HSV SAR group, in words” value in the data set with HSV was “highly inhibitory at much lower concentrations; also recorded: fully inhibitory at 5 μM”. The CC50 (usually the concentration at which the toxic effect on the cells reaches its halfway point) at 24 h in data set [1] came out at 21 µM.

These data come from patent US11420922B2, “Hydroxylated tropolone inhibitors of nucleotidyl transferases in herpesvirus and Hepatitis B and uses therefor” (Saint Louis University, priority 2015, dated 2022).
